Where two headings read alike, the source gives them in different places.
System: NLRP3
Test: IL-1β secretion assay in PMA-differentiated, LPS/nigericin-stimulated THP-1 cells (384-well, ELISA read-out)
Type: cell-based, human
Summary of the method: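 THP-1 cells differentiated with PMA (5 ng/mL, 40 h), primed in serum-free medium with 25 ng/mL LPS for 2 h, treated with compounds 1 h (0.5% DMSO), then stimulated with nigericin for 2 h at 37 °C. Supernatant IL-1β measured by ELISA; responses normalized to LPS+5 μM nigericin and LPS-only controls.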

[1] = Homo sapiens, THP-1, Table 4, IL-1β secretion, LPS/nigericin-stimulated THP-1 cells, read-out: IC50
[2] = Homo sapiens, THP-1, IL-1β secretion, PMA-differentiated THP-1 cells, LPS then nigericin stimulation, ELISA read at 450 nm, read-out: Activity
[3] = Table 4, IL-1β secretion, LPS/nigericin-stimulated THP-1 cells, read-out: IC50

SMILES | IC50 [1] [µM] | IC50 [2] [µM] | IC50 [3] [µM] | IC50 (IL-1β secretion, PMA-differentiated THP-1 cells, LPS then nigericin stimulation, ELISA read at 450 nm, read-out: Activity) [µM]
COc1ncc(F)c(NC(=O)CN2CC3(CC3)c3cc(Br)ccc3C2=O)n1 [Example 391, 2-(6-bromo-1-oxospiro[3H-isoquinoline-4,1′-cyclopropane]-2-yl)-N-(5-fluoro-2-methoxypyrimidin-4-yl)acetamide] | 22.4 | – | – | –
O=C(CN1CC2(CC2)c2cc(Br)ccc2C1=O)NC12CCC(CC1)OC2 [Example 51, 2-(6-bromo-1-oxo-spiro[3H-isoquinoline-4,1′-cyclopropane]-2-yl)-N-(2-oxabicyclo[2.2.2]octan-4-yl)acetamide] | 9.07 | 10 to 15 | – | –
Cn1ccnc1CNC(=O)CN1CC2(CC2)c2cc(Br)ccc2C1=O [Example 120, 2-(6-bromo-1-oxospiro[3H-isoquinoline-4,1′-cyclopropane]-2-yl)-N-[(1-methylimidazol-2-yl)methyl]acetamide] | 24.8 | > 15 | – | –
CN(C(=O)CN1CC2(CC2)c2cc(Br)ccc2C1=O)C1CC(C)(O)C1 (stereo not drawn) [Example 342, 2-(6-bromo-1-oxospiro[3H-isoquinoline-4,1′-cyclopropane]-2-yl)-N-(3-cis-hydroxy-3-methylcyclobutyl)-N-methylacetamide] | 17.1 | – | – | –
O=C(CN1CC2(CC2)c2cc(Br)ccc2C1=O)NC12CCC(O)(CC1)CC2 [Example 57, 2-(6-bromo-1-oxo-spiro[3H-isoquinoline-4,1′-cyclopropane]-2-yl)-N-(4-hydroxy-1-bicyclo[2.2.2]octanyl)acetamide] | 5.92 | < 10 | – | –
CC1(O)CC(NC(=O)CN2CC3(CC3(F)F)c3c(ccc(Br)c3F)C2=O)C1 (single isomer, unassigned) [Example 325, N-(3-cis-hydroxy-3-methylcyclobutyl)-2-[6-bromo-1′,1′,5-trifluoro-1-oxospiro[3H-isoquinoline-4,2′-cyclopropane]-2-yl]acetamide] | – | – | > 1 | –
O=C(CN1CC2(CC2)c2cc(Br)ccc2C1=O)Nc1ncc(F)cc1F [Example 12] | 0.588 | < 10 | – | –
O=C(CN1CC2(CC2)c2cc(Br)ccc2C1=O)Nc1nc2ccccc2o1 [Example 205, N-(1,3-benzoxazol-2-yl)-2-(6-bromo-1-oxospiro[3H-isoquinoline-4,1′-cyclopropane]-2-yl)acetamide] | 0.306 | < 10 | – | –
O=C(CN1CC2(CC2)c2cc(Br)ccc2C1=O)Nc1ccnnc1 [Example 410, 2-(6-bromo-1-oxospiro[3H-isoquinoline-4,1′-cyclopropane]-2-yl)-N-pyridazin-4-ylacetamide] | 1.52 | – | – | –
O=C(CN1CC2(CC2)c2cc(Br)ccc2C1=O)Nc1cncc2ccccc12 [Example 153, 2-(6-bromo-1-oxospiro[3H-isoquinoline-4,1′-cyclopropane]-2-yl)-N-isoquinolin-4-ylacetamide] | 32.9 | > 15 | – | –
O=C(CN1CC2(CC2)c2cc(Br)ccc2C1=O)NCCn1ccnc1 [Example 121, 2-(6-bromo-1-oxospiro[3H-isoquinoline-4,1′-cyclopropane]-2-yl)-N-(2-imidazol-1-ylethyl)acetamide] | 12.1 | 10 to 15 | – | –
O=C(CN1CC2(CC2)c2cc(Br)ccc2C1=O)Nc1ncc(-n2cccn2)cc1F [Example 186, 2-(6-bromo-1-oxospiro[3H-isoquinoline-4,1′-cyclopropane]-2-yl)-N-(3-fluoro-5-pyrazol-1-ylpyridin-2-yl)acetamide] | 5.23 | < 10 | – | –
O=C(CN1CC2(CC2)c2cc(C3COC3)ccc2C1=O)Nc1ncc(F)cn1 [Example 336, N-(5-fluoropyrimidin-2-yl)-2-[6-(oxetan-3-yl)-1-oxospiro[3H-isoquinoline-4,1′-cyclopropane]-2-yl]acetamide] | 23.2 | – | – | –
Cn1cc2nc(NC(=O)CN3CC4(CC4)c4cc(Br)ccc4C3=O)ccc2n1 [Example 190, 2-(6-bromo-1-oxospiro[3H-isoquinoline-4,1′-cyclopropane]-2-yl)-N-(2-methylpyrazolo[4,3-b]pyridin-5-yl)acetamide] | 0.691 | < 10 | – | –
O=C(CN1CC2(CC2)c2cc(Br)ccc2C1=O)Nc1ncn(-c2ccccc2)n1 [Example 413, 2-(6-bromo-1-oxospiro[3H-isoquinoline-4,1′-cyclopropane]-2-yl)-N-(1-phenyl-1,2,4-triazol-3-yl)acetamide] | 2.02 | – | – | –
O=C(CN1CC2(CC2)c2c(ccc(C3C[C@@H]3F)c2F)C1=O)Nc1ncc(F)cn1 (single isomer, unassigned) [Example 306, 2-[5-fluoro-6-[(1r,2s)-2-fluorocyclopropyl]-1-oxospiro[3H-isoquinoline-4,1′-cyclopropane]-2-yl]-N-(5-fluoropyrimidin-2-yl)acetamide] | – | – | 0.577 | –
N#Cc1ccnc(NC(=O)CN2CC3(CC3)c3cc(Br)ccc3C2=O)n1 [Example 107, 2-(6-bromo-1-oxospiro[3H-isoquinoline-4,1′-cyclopropane]-2-yl)-N-(4-cyanopyrimidin-2-yl)acetamide] | 2.82 | < 10 | – | –
O=C(CN1CC2(CC2)c2cc(Br)ccc2C1=O)Nc1ccccc1OC(F)F [Example 113, 2-(6-bromo-1-oxospiro[3H-isoquinoline-4,1′-cyclopropane]-2-yl)-N-[2-(difluoromethoxy)phenyl]acetamide] | 4.18 | < 10 | – | –
O=C(CN1CC2(CC2)c2cc(Br)ccc2C1=O)N[C@H]1C[C@@H](CO)C1 [Example 64, 2-(6-bromo-1-oxo-spiro[3H-isoquinoline-4,1′-cyclopropane]-2-yl)-N-[cis-3-(hydroxymethyl)cyclobutyl]acetamide] | 6.4 | < 10 | – | –
N#C[C@H]1C[C@@]12CN(CC(=O)Nc1ncc(F)cn1)C(=O)c1ccc(Br)cc12 (single isomer, unassigned) [Example 287, 2-[(2′s,4r)-6-bromo-2′-cyano-1-oxospiro[3H-isoquinoline-4,1′-cyclopropane]-2-yl]-N-(5-fluoropyrimidin-2-yl)acetamide] | – | – | 0.251 | < 10
O=C(CN1CC2(CC2)c2cc(Br)ccc2C1=O)N[C@@H]1CCN(C2COC2)C1 [Example 381, 2-(6-bromo-1-oxospiro[3H-isoquinoline-4,1′-cyclopropane]-2-yl)-N-[(3R)-1-(oxetan-3-yl)pyrrolidin-3-yl]acetamide] | 12.1 | – | – | –
Cc1nc(NC(=O)CN2CC3(CC3)c3cc(Br)ccc3C2=O)c(F)cc1C#N [Example 390, 2-(6-bromo-1-oxospiro[3H-isoquinoline-4,1′-cyclopropane]-2-yl)-N-(5-cyano-3-fluoro-6-methylpyridin-2-yl)acetamide] | 9.84 | – | – | –
COCCN1CCCC(NC(=O)CN2CC3(CC3)c3cc(Br)ccc3C2=O)C1 (centres unmarked) [Example 25, 2-(6-bromo-1-oxo-spiro[3H-isoquinoline-4,1′-cyclopropane]-2-yl)-N-[1-(2-methoxyethyl)-3-piperidyl]acetamide] | 3.57 | < 10 | – | –
O=C(CN1CC2(CC2)c2cc(Br)ccc2C1=O)NC1CCc2cn[nH]c2C1 (centres unmarked) [Example 45, 2-(6-bromo-1-oxospiro[3H-isoquinoline-4,1′-cyclopropane]-2-yl)-N-(4,5,6,7-tetrahydro-1H-indazol-6-yl)acetamide] | 6.25 | < 10 | – | –
Cc1cc(NC(=O)CN2CC3(CC3)c3cc(Br)ccc3C2=O)n(C)n1 [Example 144, 2-(6-bromo-1-oxospiro[3H-isoquinoline-4,1′-cyclopropane]-2-yl)-N-(2,5-dimethylpyrazol-3-yl)acetamide] | 3.91 | < 10 | – | –

Source: US20230416205A1, “COMPOUNDS, COMPOSITIONS, AND METHODS” (Denali Therapeutics Inc, priority 2020, published 2023)
